Measured values published in US20240300945A1, “CLY SERIES COMPOUND, PREPARATION METHOD THEREFOR AND USE THEREOF IN PREPARATION OF DRUGS” (NANJING WELLBEST PHARMACEUTICAL CO., LTD, priority 2021, published 2024).

Tests used:
acute GVHD mice = assay: Mouse model of acute graft-versus-host disease; assay type: in vivo, BALB/c mice; details: 5 mg/kg/d intravenously; for pathological changes of liver: 2 weeks after transplantation, hematoxylin-eosin; for clinical symptom score (GVHD): 11th day after transplantation, acute GVHD group 7.48±0.77; for survival rate of mice: Kaplan-Meier, three weeks after transplantation, acute GVHD group 12.13%
Protocol: Preparation of bone marrow cells: the donor mice were sacrificed by cervical dislocation, soaked in 75% ethanol for 5 minutes, and the two femurs and tibia of the mice were taken out under sterile conditions in the ultra-clean table, and placed in RPMI1640 medium containing 2% fetal bovine serum. Rinsed the bone marrow cavity with RPMI1640 culture medium, took out the bone marrow cells, blew them into the bone marrow suspension with sterile washing tube, filtered them with a 200 mesh filter, centrifuged for 10 min at 1500 r/min, collected the cell precipitates, and added physiological saline for resuspension. In addition, took a small amount of cell suspension and counted the number of nucleated cells after removing the red blood cells from the red blood cell lysate. And adjusted the concentration of nucleated cells in bone marrow suspension to 5×1010 L-1.
Preparation of spleen mononuclear cells: cut the spleen envelope aseptically, put it on a 200-mesh filter screen, soaked it in RPMI1640 medium containing 2% fetal bovine serum by volume, gently grinded the spleen with the handle of a sterile syringe, washed the filter screen several times with the culture medium, collected the filtered spleen cell suspension, centrifuged it at 1500 r/min for 10 min, and collected the spleen cell precipitation. After PBS resuspension, it was blown into a single cell suspension, gently placed on the upper layer of mouse spleen lymphocyte separation solution, centrifuged at 1800 r/min for 20 min, and white membrane cells were collected. PBS was washed twice. After cell count, the cell density was adjusted to 5×1010 L-1, and put in a 4° C. refrigerator for use.
C57BL/6 mice were used as bone marrow transplantation donors and BABL/c mice as recipients. BABL/c mice were randomly divided into the control group, model group, and CLY treatment group (each group was injected with 5 mg/kg/d compound CLY-1, CLY-2, or CLY-8 intravenously) according to the number of body weight, with 6 mice in each group. One week before transplantation, BALB/c mice were fed sterile acidified water containing 200 mg/L gentamicin, and mice were given 8.5 Gy whole-body irradiation (cesium source) within 24 hours before transplantation. Model group and CLY-1 group, CLY-2 group, and CLY-8 group were injected with C57BL/6 mouse bone marrow nucleated cells (including cell 1×107) and spleen mononuclear cells (including cell 5×106) 0.5 mL of mixed solution was used to establish acute GVHD model in mice, and 0.5 mL of normal saline was infused into the tail vein of BABL/c mice in the control group. CLY-1 group, CLY-2 group, and CLY-8 group were injected with CLY compound solution of 5 mg/kg/d intravenously, and the other groups were injected with saline of 5 mg/kg/d.
1.3.1 GVHD symptom score of mice: observed the general conditions of mice every day after transplantation, including body mass, fur, posture, activity, diarrhea, and mental state, and determined whether the mice had acute GVHD. According to the clinical GVHD symptom scoring standard, the clinical GVHD symptoms of mice in each group were scored 11 days after transplantation.
1.3.2 Analysis of mouse survival time: collected the survival data of mice in each group three weeks after transplantation, drew the survival curve by the Kaplan-Meier method, and compared the differences between the survival rates of mice in each group by Log-rank analysis method.
1.3.3 Histopathological examination: two weeks after transplantation, three mice with GVHD were taken from each group, and the back skin tissue, liver, and small intestine tissue were taken. 40 g/L paraformaldehyde was fixed, paraffin was fixed and embedded, hematoxylin-eosin staining was performed, and the pathological changes of each tissue were observed under the light microscope.

[1] = test system: rat pulmonary fibrosis model; assay: Rat pulmonary fibrosis model (bleomycin); assay type: in vivo, Wistar rats; details: 3 mg/kg·d tail vein, 14 days; for VEGFprotein in lung tissue / MMP-2 expression in lung tissue / MMP-9 expression in lung tissue / TIMP-1 expression in lung tissue / VEGF-mRNA in lung tissue: rat lung; for VEGFprotein in lung tissue: ELISA; for MMP-2 expression in lung tissue / MMP-9 expression in lung tissue / TIMP-1 expression in lung tissue: immunohistochemistry; for VEGF-mRNA in lung tissue: reverse transcription PCR; for CAT in peripheral blood / SOD in peripheral blood: rat peripheral blood
Protocol: (1) Reagents: bleomycin (4 mg/dose, Tianjin Taihe Pharmaceutical Co., Ltd.), mouse anti-mouse MMP monoclonal antibody (NEO Mark-ers Company), mouse anti-mouse TIMP-1 polyclonal antibody (Wuhan Shide Company), enzyme-linked immunosorbent assay (ELISA) kit (R&D Company of the United States), Quantscript RT Kit reverse transcription kit (Dalian TaKaRa Company).
The rats were, according to the number of body weight, divided into the blank control group, model group, and CLY series treatment group by random array method, with 12 rats in each group, half male and half female. The rats in each group were anesthetized by intraperitoneal injection of 2% pentobarbital sodium ([…]), fixed on the operating table, and injected by tracheotomy in the neck. The blank control group was injected with normal saline (1.25 ml/kg), and the model group and CLY treatment group were injected with 5 U/mL bleomycin solution (5 mg/kg), once a day, for 14 consecutive days. From one week after the establishment of the model, the corresponding CLY compound solution (3 mg/kg·d) was injected into the tail vein of each treatment group, and the same amount of normal saline was injected into the tail vein of the blank control group and the model group, once a day, for 14 consecutive days.
The peripheral venous blood of animals in each group was taken from the tail vein after modeling and 14 days after treatment, and the levels of superoxide dismutase (SOD) and catalase (CAT) in peripheral blood were measured. After taking blood from each group, the rats were sacrificed twice (after modeling and 14 days of treatment). The right lung tissue of the animals was stored in a refrigerator at −4° C. for detection of VEGF. The left lung tissue was routinely embedded in paraffin and sectioned. The expression of MMP subtype and TIMP-1 in the lung tissue of the rats was detected by immunohistochemistry. The right lung tissue was ground and homogenized, and the supernatant was taken after 3000 r/min high-speed centrifugation. The lung tissue VEGF protein was detected by ELISA, and the expression of VEGF-mRNA was detected by reverse transcription polymerase chain reaction.

Row | SMILES | pathological changes of liver (acute GVHD mice) | clinical symptom score (GVHD) (acute GVHD mice) | survival rate of mice (acute GVHD mice) | VEGFprotein in lung tissue [1] | MMP-2 expression in lung tissue [1] | MMP-9 expression in lung tissue [1] | TIMP-1 expression in lung tissue [1] | VEGF-mRNA in lung tissue [1] | CAT in peripheral blood [1] | SOD in peripheral blood [1]
1 | CN1CCC[C@@H](N(C(=O)c2ccc(-n3nnc4cccnc43)cc2)c2ncccc2Cl)C1 [CLY-1, (R)-4-(3H-[1,2,3]triazolo[4,5-b]pyridin-3-yl)-N-(3-chloropyridin-2-yl)-N-(1-methylpiperidin-3-yl)benzamide] | only small necrotic lesions | 5.28±0.53 | 61.26% | 52.16 ± 3.61 pg/mL | 2.43 ± 0.21 | 3.32 ± 0.23 | 7.82 ± 0.45 | 0.76 ± 0.11 | 14.13 ± 1.22 kU/g | 214.58 ± 13.53 U/ml
2 | CCN1CCC[C@@H](N(C(=O)c2ccc(-n3nnc4cccnc43)cc2)c2ncccc2Cl)C1 [CLY-2, (R)-4-(3H-[1,2,3]triazolo[4,5-b]pyridin-3-yl)-N-(3-chloropyridin-2-yl)-N-(1-ethylpiperidin-3-yl)benzamide] | only small necrotic lesions | 4.68±0.42 | 58.79% | 51.18 ± 3.69 pg/mL | 2.51 ± 0.24 | 3.36 ± 0.25 | 8.06 ± 0.49 | 0.71 ± 0.12 | 14.28 ± 1.39 kU/g | 216.62 ± 13.55 U/ml
3 | O=C(c1ccc(-n2nnc3cccnc32)cc1)N(c1ncccc1Cl)[C@@H]1CCNC1 [CLY-8, (R)-4-(3H-[1,2,3]triazolo[4,5-b]pyridin-3-yl)-N-(3-chloropyridin-2-yl)-N-(pyrrolidin-3-yl)benzamide] | only small necrotic lesions | 4.56±0.39 | 63.48% | 53.16 ± 3.62 pg/mL | 2.44 ± 0.21 | 3.31 ± 0.21 | 8.82 ± 0.53 | 0.79 ± 0.13 | 14.75 ± 1.22 kU/g | 220.86 ± 13.78 U/ml
4 | NC1CCCC(N(C(=O)c2ccc(-n3nnc4cccnc43)cc2)c2ncccc2Cl)C1 (centres unmarked) [CLY-11] |  |  |  | 49.86 ± 3.58 pg/mL | 2.52 ± 0.23 | 3.53 ± 0.26 | 8.13 ± 0.38 | 0.76 ± 0.13 | 13.96 ± 1.36 kU/g | 216.48 ± 13.16 U/ml
5 | O=C(c1ccc(-c2ccccc2Cl)cc1)N(c1ncccc1Cl)[C@@H]1CCCNC1 [CLY-36] |  |  |  | 53.87 ± 3.73 pg/mL | 2.59 ± 0.23 | 3.46 ± 0.25 | 7.63 ± 0.52 | 0.83 ± 0.13 | 13.26 ± 1.26 kU/g | 221.76 ± 13.57 U/ml
